Experimental data taken from patent publication US20040116420A1 (priority 2001, published 2004).

Columns and labels:
HSV-1 protease = target: T1, HSV-1 protease (Human herpesvirus 1, UniProt P10210); assay: Enzymatic assay for HSV-1 protease (assembly) inhibitor, fluorescence polarization; format: biochemical; details: read-out: HSV-1 Enzyme inhibition IC50
T1 construct: 6xHis (N); made in house; host or cells: baculovirus expression system
How it was run: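 Fluorescence polarization read-out: after avidin stop, cleavage of a biotinylated DTAF-labelled release-site peptide by recombinant N-His6 HSV-1 protease was compared with no-inhibitor wells. Enzyme and compound were preincubated 30 min, then substrate reacted 60 min, all at room temperature, pH 7.4 citrate buffer with TCEP.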

HSV-1 = assay: Antiviral activity, HSV-1 in Vero cells, plaque method; format: cell-based; details: 90% inhibition of plaque formation
How it was run: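 This is a virus-yield read-out. The culture medium was frozen at −80° C and thawed, and the plaques it formed were counted. It came from Vero monolayers infected with 50,000 pfu HSV-1 and then exposed to the compound for 20 h at 37° C. EC90 is the concentration inhibiting 90% of plaque formation relative to the untreated infected control.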

Vero cells = assay: Cytotoxicity, Vero cells, Alamar Blue; format: cell-based; details: 25 μM, 20 hours
How it was run: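 Living-cell ratio versus untreated control was read by Alamar Blue absorbance after about 6 h of dye incubation. Before that, Vero cells had received 25 μM test compound in 2% FBS-DMEM for 20 hours at 37 °C under 5% CO2.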

[1] = Human alphaherpesvirus 1, 20 hours

T1 sequence (P10210 1-247): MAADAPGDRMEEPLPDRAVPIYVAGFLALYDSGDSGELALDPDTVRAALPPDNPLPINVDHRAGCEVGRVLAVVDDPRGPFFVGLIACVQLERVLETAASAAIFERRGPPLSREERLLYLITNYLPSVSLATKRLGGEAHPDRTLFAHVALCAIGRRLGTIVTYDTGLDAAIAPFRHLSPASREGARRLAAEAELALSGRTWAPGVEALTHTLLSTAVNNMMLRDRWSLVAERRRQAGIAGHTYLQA

Row | SMILES | IC50 (HSV-1 protease) [µM] | EC90 (HSV-1; [1]) [µM] | Cell viability (% of control) (Vero cells) [%] | EC90 (HSV-1; 20 hours) [µM]
1 | Cc1c(NC(=O)OC(C)(C)C)ccc2nc(N(C)[C@@H](C)C(=O)N(C)CCc3cccnc3)oc(=O)c12 [Compound No.77, [5-Methyl-2-(methyl-{1S-[methyl-(2-pyridin-3-yl-ethyl)-carbamoyl]-ethyl}-amino)-4-oxo-4H-benzo[d][1,3]oxazin-6-yl]-carbamic acid tert-butyl ester] | 1.8 | > 12.5 | 94.4 | –
2 | Cc1c(NC(=O)OC(C)(C)C)ccc2nc(N(C)[C@@H](C)C(=O)N(C)CCc3ccncc3)oc(=O)c12 [Compound No.78, [5-Methyl-2-(methyl-{1S-[methyl-(2-pyridin-4-yl-ethyl)-carbamoyl]-ethyl}-amino)-4-oxo-4H-benzo[d][1,3]oxazin-6-yl]-carbamic acid tert-butyl ester] | 1.4 | > 12.5 | 90.7 | –
3 | Cc1c(NC(=O)OC(C)(C)C)ccc2nc(N(C)[C@@H](Cc3ccccc3)C(=O)NCc3cccnc3)oc(=O)c12 [Compound No.79, [5-Methyl-2-(methyl-{2-phenyl-1S-[(pyridin-3-ylmethyl)-carbamoyl]-ethyl}-amino)-4-oxo-4H-benzo[d][1,3]oxazin-6-yl]-carbamic acid tert-butyl ester] | 1 | 6 | 38.5 | –
4 | Cc1c(NC(=O)OC(C)(C)C)ccc2nc(N(C)[C@@H](Cc3ccccc3)C(=O)NCc3ccncc3)oc(=O)c12 [Compound No.80, [5-Methyl-2-(methyl-{2-phenyl-1S-[(pyridin-4-ylmethyl)-carbamoyl]-ethyl}-amino)-4-oxo-4H-benzo[d][1,3]oxazin-6-yl]-carbamic acid tert-butyl ester] | 0.9 | 5.9 | 48.0 | –
5 | Cc1c(NC(=O)OC(C)(C)C)ccc2nc(N(C)[C@@H](Cc3ccccc3)C(=O)NCCc3ccccn3)oc(=O)c12 [Compound No.81, (5-Methyl-2-{methyl-[2-phenyl-1S-(2-pyridin-2-yl-ethylcarbamoyl)-ethyl]-amino}-4-oxo-4H-benzo[d][1,3]oxazin-6-yl)-carbamic acid tert-butyl ester] | 1.7 | 9.5 | 49.7 | –
6 | Cc1c(NC(=O)OC(C)(C)C)ccc2nc(N(C)[C@@H](Cc3ccccc3)C(=O)N(C)Cc3ccccn3)oc(=O)c12 [Compound No.82, (5-Methyl-2-{methyl-[1S-(methyl-pyridin-2-ylmethyl-carbamoyl)-2-phenyl-ethyl]-amino}-4-oxo-4H-benzo[d][1,3]oxazin-6-yl)-carbamic acid tert-butyl ester] | 1.5 | 10.8 | 61.6 | –
7 | Cc1c(NC(=O)OC(C)(C)C)ccc2nc(N(C)[C@@H](Cc3ccccc3)C(=O)N(C)CCc3ccccn3)oc(=O)c12 [Compound No.83, [5-Methyl-2-(methyl-{1S-[methyl-(2-pyridin-2-yl-ethyl)carbamoyl]-2-phenyl-ethyl}-amino)-4-oxo-4H-benzo[d][1,3]oxazin-6-yl]-carbamic acid tert-butyl ester] | 2.6 | 11.5 | 66.6 | –
8 | Cc1c(NC(=O)OC(C)(C)C)ccc2nc(N(C)[C@@H](Cc3ccccc3)C(=O)N(C)CCc3cccnc3)oc(=O)c12 [Compound No.84, [5-Methyl-2-(methyl-{1S-[methyl-(2-pyridin-3-yl-ethyl)-carbamoyl]-2-phenyl-ethyl}-amino)-4-oxo-4H-benzo[d][1,3]oxazin-6-yl]-carbamic acid tert-butyl ester] | 1.7 | 11 | 37.6 | –
9 | Cc1c(NC(=O)OC(C)(C)C)ccc2nc(N(C)[C@@H](Cc3ccccc3)C(=O)N(C)CCc3ccncc3)oc(=O)c12 [Compound No.85, [5-Methyl-2-(methyl-{1S-[methyl-(2-pyridin-4-yl-ethyl)-carbamoyl]-2-phenyl-ethyl}-amino)-4-oxo-4H-benzo[d][1,3]oxazin-6-yl]-carbamic acid tert-butyl ester] | 2.3 | 11.7 | 60.7 | –
10 | Cc1c(NC(=O)OC(C)(C)C)ccc2nc(N3CCC[C@H]3C(=O)NCc3ccccn3)oc(=O)c12 [Compound No.86, (5-Methyl-4-oxo-2-{2S-[(pyridin-2-ylmethyl)-carbamoyl]-pyrrolidin-1-yl}-4H-benzo[d][1,3]oxazin-6-yl)-carbamic acid tert-butyl ester] | 1.1 | > 12.5 | 94.6 | –
11 | Cc1c(NC(=O)OC(C)(C)C)ccc2nc(N3CCC[C@H]3C(=O)NCc3cccnc3)oc(=O)c12 [Compound No.87, (5-Methyl-4-oxo-2-{2S-[(pyridin-3-ylmethyl)-carbamoyl]-pyrrolidin-1-yl}-4H-benzo[d][1,3]oxazin-6-yl)-carbamic acid tert-butyl ester] | 1.7 | > 12.5 | 92.4 | –
12 | Cc1c(NC(=O)OC(C)(C)C)ccc2nc(N3CCC[C@H]3C(=O)NCc3ccncc3)oc(=O)c12 [Compound No.88, (5-Methyl-4-oxo-2-{2S-[(pyridin-4-ylmethyl)-carbamoyl]-pyrrolidin-1-yl}-4H-benzo[d][1,3]oxazin-6-yl)-carbamic acid tert-butyl ester] | 2.7 | – | 74.1 | > 12.5
13 | Cc1c(NC(=O)OC(C)(C)C)ccc2nc(N3CCC[C@H]3C(=O)NCCc3ccccn3)oc(=O)c12 [Compound No.89, {5-Methyl-4-oxo-2-[2S-(2-pyridin-2-ylethylcarbamoyl)-pyrrolidin-1-yl]-4H-benzo[d][1,3]oxazin-6-yl}-carbamic acid tert-butyl ester] | 1.4 | > 12.5 | 92.6 | –
14 | Cc1c(NC(=O)OC(C)(C)C)ccc2nc(N3CCC[C@H]3C(=O)N(C)Cc3ccccn3)oc(=O)c12 [Compound No.90, {5-Methyl-2-[2S-(methyl-pyridin-2-ylmethyl-carbamoyl)-pyrrolidin-1-yl]-4-oxo-4H-benzo[d][1,3]oxazin-6-yl}-carbamic acid tert-butyl ester] | 16.9 | > 12.5 | 93.6 | –
15 | Cc1c(NC(=O)OC(C)(C)C)ccc2nc(N3CCC[C@H]3C(=O)N(C)CCc3ccccn3)oc(=O)c12 [Compound No.91, (5-Methyl-2-{2S-[methyl-(2-pyridin-2-yl-ethyl)-carbamoyl]-pyrrolidin-1-yl}-4-oxo-4H-benzo[d][1,3]oxazin-6-yl)-carbamic acid tert-butyl ester] | > 20 | > 12.5 | 92.3 | –
16 | Cc1c(NC(=O)OC(C)(C)C)ccc2nc(N3CCC[C@H]3C(=O)N(C)CCc3cccnc3)oc(=O)c12 [Compound No.92, (5-Methyl-2-{2S-[methyl-(2-pyridin-3-yl-ethyl)-carbamoyl]-pyrrolidin-1-yl}-4-oxo-4H-benzo[d][1,3]oxazin-6-yl)-carbamic acid tert-butyl ester] | > 20 | > 12.5 | 87.2 | –
17 | Cc1c(NC(=O)OC(C)(C)C)ccc2nc(N3CCC[C@H]3C(=O)N(C)CCc3ccncc3)oc(=O)c12 [Compound No.93, (5-Methyl-2-{2S-[methyl-(2-pyridin-4-yl-ethyl)-carbamoyl]-pyrrolidin-1-yl}-4-oxo-4H-benzo[d][1,3]oxazin-6-yl)-carbamic acid tert-butyl ester] | > 20 | > 12.5 | 82.4 | –
18 | Cc1c(NC(=O)OC(C)(C)C)ccc2nc(N3Cc4ccccc4C[C@H]3C(=O)NCc3ccccn3)oc(=O)c12 [Compound No.94, (5-Methyl-4-oxo-2-{3S-[(pyridin-2-ylmethyl)-carbamoyl]-3,4-dihydro-1H-isoquinolin-2-yl}-4H-benzo[d][1,3]oxazin-6-yl)-carbamic acid tert-butyl ester] | 2.3 | 5.4 | 55.2 | –
19 | Cc1c(NC(=O)OC(C)(C)C)ccc2nc(N3Cc4ccccc4C[C@H]3C(=O)NCc3cccnc3)oc(=O)c12 [Compound No.95, (5-Methyl-4-oxo-2-{3S-[(pyridin-3-ylmethyl)-carbamoyl]-3,4-dihydro-1H-isoquinolin-2-yl}-4H-benzo[d][1,3]oxazin-6-yl)-carbamic acid tert-butyl ester] | 4.4 | 12.3 | 44.0 | –
20 | Cc1c(NC(=O)OC(C)(C)C)ccc2nc(N3Cc4ccccc4C[C@H]3C(=O)NCc3ccncc3)oc(=O)c12 [Compound No.96, (5-Methyl-4-oxo-2-{3S-[(pyridin-4-ylmethyl)-carbamoyl]-3,4-dihydro-1H-isoquinolin-2-yl}-4H-benzo[d][1,3]oxazin-6-yl)-carbamic acid tert-butyl ester] | 5.5 | 11.2 | 55.4 | –
21 | Cc1c(NC(=O)OC(C)(C)C)ccc2nc(N3Cc4ccccc4C[C@H]3C(=O)NCCc3ccccn3)oc(=O)c12 [Compound No.97, {5-Methyl-4-oxo-2-[3S-(2-pyridin-2-yl-ethylcarbamoyl)-3,4-dihydro-1H-isoquinolin-2-yl]-4H-benzo[d][1,3]oxazin-6-yl}-carbamic acid tert-butyl ester] | 3.3 | 11 | 51.3 | –
